From patent publication US12404279B2, “Deubiquitinase inhibitors and methods of use thereof” (Molecure S.A., priority 2021, dated 2025)
Like-named read-outs stand apart in the source and are kept apart here.

Target: full-length USP7 (Homo sapiens (Human), UniProt Q93009)
Assay: Enzymatic assay to determine IC50 of USP7 inhibitors (Ubiquitin-Rhodamine 110 cleavage)
Assay type: biochemical
Conditions: for inhibition at 1 µM: read-out: percent value of inhibition of USP7 activity; for IC50: 0.5 nM USP7, 0.5 μM Ubiquitin-Rhodamine 110, 45 min at 37° C.
Method: For the inhibitors disclosed herein, their potency was measured using the following method.
A 45 μl reaction volume containing full-length USP7 (0.5 nM) in 50 mM HEPES pH 7.5, 150 mM NaCl, 1 mM DTT, 1 mg/ml BSA and 0.05% Tween20 was assembled in wells of 96 well half area black flat bottom plates. Test compounds were first dissolved to 25 mM stocks in DMSO and subsequently introduced to enzyme 15 min after USP7 incubation with DTT at room temperature. The enzymatic reaction was started by adding 0.5 μM Ubiquitin-Rhodamine 110 (final concentration) and allowed to proceed for 45 min at 37° C., 250 RPM shaking before Rhodamine fluorescence (485 nm excitation/520 nm emission) was measured using Tecan Spark M10 plate reader.

full-length USP7, sequence (Q93009 whole entry): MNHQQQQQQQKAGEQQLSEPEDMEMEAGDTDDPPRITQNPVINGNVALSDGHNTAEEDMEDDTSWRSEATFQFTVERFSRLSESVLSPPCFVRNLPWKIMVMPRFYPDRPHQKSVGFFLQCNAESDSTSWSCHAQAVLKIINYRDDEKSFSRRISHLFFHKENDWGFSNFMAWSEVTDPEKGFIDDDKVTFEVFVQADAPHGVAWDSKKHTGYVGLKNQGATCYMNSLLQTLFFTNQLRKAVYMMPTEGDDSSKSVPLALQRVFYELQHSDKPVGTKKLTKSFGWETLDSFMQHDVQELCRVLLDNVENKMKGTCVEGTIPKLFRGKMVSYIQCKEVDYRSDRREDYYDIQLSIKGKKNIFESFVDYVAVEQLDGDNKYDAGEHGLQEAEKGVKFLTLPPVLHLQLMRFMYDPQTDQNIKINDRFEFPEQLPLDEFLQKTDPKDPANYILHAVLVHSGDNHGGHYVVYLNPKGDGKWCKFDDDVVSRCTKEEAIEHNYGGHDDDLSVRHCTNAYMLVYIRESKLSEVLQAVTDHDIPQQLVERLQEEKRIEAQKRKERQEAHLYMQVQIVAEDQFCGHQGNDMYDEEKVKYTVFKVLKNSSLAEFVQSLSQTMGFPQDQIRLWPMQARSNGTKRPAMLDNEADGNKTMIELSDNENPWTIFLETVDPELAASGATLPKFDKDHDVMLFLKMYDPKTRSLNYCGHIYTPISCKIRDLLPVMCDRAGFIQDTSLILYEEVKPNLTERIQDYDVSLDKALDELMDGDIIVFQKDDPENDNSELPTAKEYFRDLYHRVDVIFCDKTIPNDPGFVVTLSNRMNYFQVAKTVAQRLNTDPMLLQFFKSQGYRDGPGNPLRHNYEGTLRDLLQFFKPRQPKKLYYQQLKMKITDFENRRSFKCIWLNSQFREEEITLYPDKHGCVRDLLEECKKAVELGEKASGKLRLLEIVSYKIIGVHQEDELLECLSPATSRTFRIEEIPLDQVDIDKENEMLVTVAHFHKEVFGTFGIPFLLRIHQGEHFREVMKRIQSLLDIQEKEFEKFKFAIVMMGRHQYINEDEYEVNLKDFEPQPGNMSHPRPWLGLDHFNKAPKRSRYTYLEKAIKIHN

Compound	inhibition at 1 µM [%]	IC50 [µM]	further results
CC1(C)C2C(=O)N(Cc3cc4nccc(-c5cc(C(F)(F)F)n(CC6CNCCO6)n5)c4s3)C(=O)C21 (stereo not drawn) [Example 6, 6,6-dimethyl-3-((7-(1-(morpholin-2-ylmethyl)-5-(trifluoromethyl)-1H-pyrazol-3-yl)thieno[3,2-b]pyridin-2-yl)methyl)-3-azabicyclo[3.1.0]hexane-2,4-dione 2,2,2-trifluoroacetate]	< 20		
CC1(C)C2C(=O)N(Cc3cc4nccc(-c5cc(C(F)(F)F)nn5CC5CNCCO5)c4s3)C(=O)C21 (stereo not drawn) [Example 7, 6,6-dimethyl-3-((7-(1-(morpholin-2-ylmethyl)-3-(trifluoromethyl)-1H-pyrazol-5-yl)thieno[3,2-b]pyridin-2-yl)methyl)-3-azabicyclo[3.1.0]hexane-2,4-dione 2,2,2-trifluoroacetate]	< 20		
Cc1nc(C#N)cc(-c2ccnc3cc(CN4C(=O)C5C(C4=O)C5(C)C)sc23)c1C(=O)N1CC[C@@H](N)C1 (stereo partly drawn) [Example 8, 5-((R)-3-aminopyrrolidine-1-carbonyl)-4-(2-((6,6-dimethyl-2,4-dioxo-3-azabicyclo[3.1.0]hexan-3-yl)methyl)thieno[3,2-b]pyridin-7-yl)-6-methylpicolinonitrile 2,2,2-trifluoroacetate]		0.5 to 1	
CC1(C)C2C(=O)N(Cc3cc4nccc(-c5cccn5CC5CNCCO5)c4s3)C(=O)C21 (stereo not drawn) [Example 9, 6,6-dimethyl-3-((7-(1-(morpholin-2-ylmethyl)-1H-pyrrol-2-yl)thieno[3,2-b]pyridin-2-yl)methyl)-3-azabicyclo[3.1.0]hexane-2,4-dione 2,2,2-trifluoroacetate]	< 20		
Cc1nc(C#N)cc(-c2ccnc3cc(CN4C(=O)C5C(C4=O)C5(C)C)sc23)c1C(=O)N1CCC(F)(F)C1 (stereo not drawn) [Example 10, 5-(3,3-difluoropyrrolidine-1-carbonyl)-4-(2-((6,6-dimethyl-2,4-dioxo-3-azabicyclo[3.1.0]hexan-3-yl)methyl)thieno[3,2-b]pyridin-7-yl)-6-methylpicolinonitrile 2,2,2-trifluoroacetate]		1 to 10	
Cc1nc(C#N)cc(-c2ccnc3cc(CN4C(=O)C5C(C4=O)C5(C)C)sc23)c1C(=O)N1CC[C@H](O)C1 (stereo partly drawn) [Example 11, 4-(2-((6,6-dimethyl-2,4-dioxo-3-azabicyclo[3.1.0]hexan-3-yl)methyl)thieno[3,2-b]pyridin-7-yl)-5-((S)-3-hydroxypyrrolidine-1-carbonyl)-6-methylpicolinonitrile 2,2,2-trifluoroacetate]		< 0.5	
Cc1nc(C#N)cc(-c2ccnc3cc(CN4C(=O)C5C(C4=O)C5(C)C)sc23)c1C(=O)N1CC[C@@H](O)C1 (stereo partly drawn) [Example 12, 4-(2-((6,6-dimethyl-2,4-dioxo-3-azabicyclo[3.1.0]hexan-3-yl)methyl)thieno[3,2-b]pyridin-7-yl)-5-((R)-3-hydroxypyrrolidine-1-carbonyl)-6-methylpicolinonitrile 2,2,2-trifluoroacetate]		0.5 to 1	
Cc1nc(C#N)cc(-c2ccnc3cc(CN4C(=O)C5C(C4=O)C5(C)C)sc23)c1C(=O)N1CCC(F)(F)CC1 (stereo not drawn) [Example 13, 5-(4,4-difluoropiperidine-1-carbonyl)-4-(2-((6,6-dimethyl-2,4-dioxo-3-azabicyclo[3.1.0]hexan-3-yl)methyl)thieno[3,2-b]pyridin-7-yl)-6-methylpicolinonitrile 2,2,2-trifluoroacetate]			inhibition at 1 µM (at 1 μM of the test compound, given where IC50 not determined yet): 20 to 49%
Cc1nc(C#N)cc(-c2ccnc3cc(CN4C(=O)C5C(C4=O)C5(C)C)sc23)c1C(=O)NC1CC(F)(F)C1 (stereo not drawn) [Example 14, 6-cyano-N-(3,3-difluorocyclobutyl)-4-(2-((6,6-dimethyl-2,4-dioxo-3-azabicyclo[3.1.0]hexan-3-yl)methyl)thieno[3,2-b]pyridin-7-yl)-2-methylnicotinamide 2,2,2-trifluoroacetate]	< 20		
